Reference: patent publication US20030232862A1 (priority 2002, published 2003)
“Also recorded” adds a separate entry of the source. Structures can show the parent of a compound that is named as a salt. Blank lines part the entries; values can stand above or below the molecule they belong to.

Legend:
human breast xenograft = conditions: in vivo; cited from earlier work
[1] = tested on: LNCaP prostate tumor cell line; assay: Histone-associated DNA fragmentation in LNCaP cells; assay type: cell-based; conditions: 50 μM, up to 4 days
Description: (§1) The androgen-sensitive prostate tumor cell line, LNCaP (from ATCC (Rockville, Md.)) was propagated under standard conditions using […] medium containing 5% fetal calve serum and 2 mM glutamine. Primary prostate epithelial cell cultures (PrEC) derived from normal prostate (from Clonetics Inc. (San Diego, Calif.)) were grown under the same conditions as the tumor cell line except a serum-free medium optimized for the growth of such cultures was used (Clonetics Inc). For the experiments, LNCaP or PrEC cells were seeded in 96 well plates at a density of 10,000 cells per well. After 24 hours, the cells were treated with either vehicle (0.1% DMSO) or 50 μM Compound I (free base) solubilized in DMSO. After various drug treatment times (4, 24, 48, 72, or 99 hours) the cells were lysed and processed for measurement of histone-associated DNA as an indicator of apoptotic cell death (see, Piazza et al., Cancer Research 57: 2452-2459, 1997).

28-day study in rats = assay type: in vivo
[2] = dog, in vivo
[3] = Seven-day dose-range finding study in rats; assay type: in vivo; conditions: any dose level
[4] = tested on: PrEC primary prostate epithelial cells derived from normal prostate; assay: Histone-associated DNA fragmentation in PrEC cells; assay type: cell-based; conditions: 50 μM, up to 4 days
Description: as §1

[5] = Single, escalating dose human study; assay type: in vivo
[6] = biological target: cGMP PDE purified from human colon HT-29 cultured tumor cells (Homo sapiens, UniProt O76074); assay: cGMP PDE inhibition assay; assay type: biochemical; conditions: for PDE Inhibition: Table 9 qualitative profile; for IC50: read-out: IC50 for inhibition of cGMP PDE
[7] = biological target: T1, novel cGMP-specific PDE Peak B from SW480 cells (Homo sapiens, UniProt O00408); assay: cGMP hydrolysis by novel PDE Peak B isolated from SW480 cells; assay type: biochemical
T1 construct: IC50 Peak B (μM)

[8] = biological target: T2, PDE Peak A (PDE5) from SW480 cells (Homo sapiens, UniProt O76074); assay: cGMP hydrolysis by PDE Peak A (PDE5) isolated from SW480 cells; assay type: biochemical
T2 construct: To isolate the novel phosphodiesterase from SW480, approximately four hundred million SW480 cells were grown to confluence; endogenous in cells; host or cells: SW480 colon cancer cells; 105,000 g supernatant, DEAE-Trisacryl M fraction

[9] = tested on: HT-29 colon adenocarcinoma cells; assay: Apoptosis by DNA fragmentation assay in HT-29 cells; assay type: cell-based, human; conditions: for Apoptosis: Table 9 qualitative profile; on Apoptosis: key: −: Not active; +: Slightly active; + +: Moderately active; + + +: Strongly active; + + + +: Highly active
[10] = tested on: premalignant lesions in mouse mammary gland organ culture; assay: Mammary gland organ culture model; assay type: cell-based; conditions: Table 9 qualitative profile; further: key: −: Not active; +: Slightly active; + +: Moderately active; + + +: Strongly active; + + + +: Highly active
Description: Test compounds identified by the above methods can be tested for antineoplastic activity by their ability to inhibit the incidence of pre-neoplastic lesions in a mammary gland organ culture system. This mouse mammary gland organ culture technique has been successfully used by other investigators to study the effects of known antineoplastic agents such as certain NSAIDs, retinoids, tamoxifen, selenium, and certain natural products, and is useful for validation of the screening method of the present invention.
For example, female BALB/c mice can be treated with a combination of estradiol and progesterone daily, in order to prime the glands to be responsive to hormones in vitro. The animals are sacrificed, and thoracic mammary glands are excised aseptically and incubated for ten days in growth media supplemented with insulin, prolactin, hydrocortisone, and aldosterone. DMBA (7,12-dimethylbenz(a)anthracene) is added to medium to induce the formation of premalignant lesions. Fully developed glands are then deprived of prolactin, hydrocortisone, and aldosterone, resulting in the regression of the glands but not the pre-malignant lesions.
The test compound is dissolved in DMSO and added to the culture media for the duration of the culture period. At the end of the culture period, the glands are fixed in 10% formalin, stained with alum carmine, and mounted on glass slides. The incidence of forming mammary lesions is the ratio of the glands with mammary lesions to […]. The incidence of mammary lesions in test compound treated glands is compared with that of the untreated glands.
The extent of the area occupied by the mammary lesions can be quantitated by projecting an image of the gland onto a digitation pad. The area covered by the gland is traced on the pad and considered as 100% of the area. The space covered by each of the non-regressed structures is also outlined on the digitization pad and quantitated by the computer.
Mammary gland organ culture experiment were performed as previously described (Mehta and Moon, Cancer Research, 46: 5832-5835, 1986).

[11] = biological target: T3, purified cyclooxygenase (Type 1) from ram seminal vesicles (Ovis aries, UniProt P05979); assay: Purified cyclooxygenase (Type 1) activity; assay type: biochemical; conditions: FIG. 5
T3 construct: using purified cyclooxygenase from ram seminal vesicles as described previously; from tissue; host or cells: ram seminal vesicles
T3 sequence (P05979 25-600): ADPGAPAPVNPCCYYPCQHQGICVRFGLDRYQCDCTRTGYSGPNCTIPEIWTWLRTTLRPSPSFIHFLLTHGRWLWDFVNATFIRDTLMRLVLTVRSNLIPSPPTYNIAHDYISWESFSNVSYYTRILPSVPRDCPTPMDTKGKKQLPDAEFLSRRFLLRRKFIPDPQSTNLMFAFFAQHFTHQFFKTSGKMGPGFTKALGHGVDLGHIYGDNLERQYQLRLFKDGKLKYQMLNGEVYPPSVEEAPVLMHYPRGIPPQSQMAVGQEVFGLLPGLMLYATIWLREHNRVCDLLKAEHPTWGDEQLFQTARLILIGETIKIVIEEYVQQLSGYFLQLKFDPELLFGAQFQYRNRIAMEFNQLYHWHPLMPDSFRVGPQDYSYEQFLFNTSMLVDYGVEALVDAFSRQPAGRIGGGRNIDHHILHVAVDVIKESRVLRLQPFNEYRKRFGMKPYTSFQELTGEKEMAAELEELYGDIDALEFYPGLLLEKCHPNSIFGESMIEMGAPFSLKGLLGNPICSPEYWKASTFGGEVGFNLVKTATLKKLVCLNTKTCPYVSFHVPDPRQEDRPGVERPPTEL

HT-29 cells = assay: Growth inhibition of HT-29 cells (SRB assay; trypan blue counting in time course); assay type: cell-based, human; conditions: for Growth Inhibition: Table 9 qualitative profile
[12] = tested on: SW-480 colon adenocarcinoma cells
Cyclooxygenase (COX) = biological target: T4, Cyclooxygenase (COX) (Ovis aries, UniProt P05979); assay: COX inhibition assay, single dose screen (Table 2); assay type: biochemical
T4 sequence (P05979 25-600): T3 sequence (P05979 25-600)

[13] = biological target: T5, cGMP binding sites of GST-cGB-PDE5 fusion protein (Homo sapiens, UniProt O76074); assay: cGMP binding assay with GST-cGB-PDE5 fusion protein; conditions: 3H-cGMP 2 μM
T5 construct: made in house; host or cells: E. coli BL21 (DE3)

[14] = tested on: SW-480 colon adenocarcinoma cells; assay: Apoptosis fold induction protocol (DNA fragmentation, Table 4); conditions: Homo sapiens, SW480, read-out: Fold induction at 100 μM (apoptosis), 100 μM; cell line not given
[15] = tested on: PDE4 purified from human colon HT-29 cultured tumor cells; assay: PDE4 inhibition assay; assay type: biochemical
Description: (Thompson, W. J., Teraski, W. L., Epstein, P. M., Strada, S. J., Advances in Cyclic Nucleotide Research, 10:69-92, 1979, which is incorporated herein by reference). […] The mixture is incubated at 30° C. for 10 minutes with isolated PDE of this invention. Reactions are terminated, for example, by boiling the reaction mixture for 75 seconds. After cooling on ice, 100 μl of 0.5 mg/mL snake venom (O. Hannah venom available from Sigma) is added and incubated for 10 minutes at 30° C. This reaction is then terminated by the addition of an alcohol, e.g. 1 mL of 100% methanol. Assay samples are applied to 1 mL Dowex 1-X8 column; and washed with 1 mL of 100% methanol. The amount of radioactivity in the breakthrough and the wash from the column is combined and measured with a scintillation counter. The degree of phosphodiesterase inhibition is determined by calculating the amount of radioactivity in drug-treated reactions and comparing against a control sample (a reaction mixture lacking the tested compound but with drug solvent).

T1 sequence (O00408 whole entry): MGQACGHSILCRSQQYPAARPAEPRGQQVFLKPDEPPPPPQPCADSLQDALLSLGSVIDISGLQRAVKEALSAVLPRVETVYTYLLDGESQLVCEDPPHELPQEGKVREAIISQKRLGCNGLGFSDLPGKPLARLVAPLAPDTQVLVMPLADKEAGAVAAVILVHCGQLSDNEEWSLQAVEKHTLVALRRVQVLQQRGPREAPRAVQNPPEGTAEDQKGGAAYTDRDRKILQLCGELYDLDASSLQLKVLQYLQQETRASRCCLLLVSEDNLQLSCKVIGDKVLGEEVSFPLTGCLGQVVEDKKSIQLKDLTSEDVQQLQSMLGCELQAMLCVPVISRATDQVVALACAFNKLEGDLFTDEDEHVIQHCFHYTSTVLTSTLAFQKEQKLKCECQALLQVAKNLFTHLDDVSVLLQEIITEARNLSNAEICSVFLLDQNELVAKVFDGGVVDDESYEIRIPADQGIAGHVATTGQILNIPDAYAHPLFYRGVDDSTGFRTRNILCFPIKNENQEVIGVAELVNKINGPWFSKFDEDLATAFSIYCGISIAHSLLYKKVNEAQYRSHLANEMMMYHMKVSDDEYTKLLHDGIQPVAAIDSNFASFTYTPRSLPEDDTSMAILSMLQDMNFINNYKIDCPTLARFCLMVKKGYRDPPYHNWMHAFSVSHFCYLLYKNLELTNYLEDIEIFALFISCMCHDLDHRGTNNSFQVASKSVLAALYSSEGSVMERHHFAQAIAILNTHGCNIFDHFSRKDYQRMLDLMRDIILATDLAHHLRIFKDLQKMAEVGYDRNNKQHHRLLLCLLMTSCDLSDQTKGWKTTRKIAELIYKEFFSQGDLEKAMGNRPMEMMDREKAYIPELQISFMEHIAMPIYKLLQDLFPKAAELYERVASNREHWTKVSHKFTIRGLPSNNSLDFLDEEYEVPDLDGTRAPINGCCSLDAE

Structure (SMILES): COc1cc2ncnc(Nc3ccc(F)c(Cl)c3)c2cc1OCCCN1CCOCC1 [Iressa, 4-quinazolinamine, N-(3-chloro-4-fluorophenyl)-7-methoxy-6-[3-(4-morpholinyl)propoxy]-(9CI)]
human breast xenograft growth (human breast xenograft): inhibits human breast xenograft growth

Structure (SMILES): CC1=C(CC(=O)NCc2ccccc2)c2cc(F)ccc2/C1=C\c1ccncc1 [Compound I, (Z)-5-fluoro-2-methyl-(4-pyridylidene)-3-(N-benzyl)indenylacetamide hydrochloride]
histone-associated fragmented DNA in LNCaP cell cultures [1]: time-dependent increase | liver weights, 28-day study (28-day study in rats; 2000 mg/kg/day): statistically significant increase in liver weights | thyroid weights, 28-day study (28-day study in rats; 2000 mg/kg/day): statistically significant increases in thyroid weights | histopathological evaluation, 28-day study (28-day study in rats; generally limited to a small number of animals at 2000 mg/kg/day): traces of follicular cell hypertrophy, increased numbers of mitotic figures (suggestive of possible cell proliferation) in the thyroid gland and mild centrilobular hypertrophy in the liver | drug-related effects, single and seven consecutive doses in dogs [2]: At no time in either dosing phase were any obvious signs of drug-related effects observed | signs of toxicity, single dose in dogs ([2]; 1000 mg/kg): no signs of toxicity | hematology, blood chemistry, microscopic pathology, seven-day study [3]: No hematological or blood chemistry changes nor any microscopic pathology changes | DNA fragmentation in PrEC cells [4]: did not affect DNA fragmentation | safety in human study [5]: safe

Continued, in another order:

% Inhibition at 10 μM (cGMP PDE) [6]: 75% | PDE Inhibition [6]: + + + + | IC50 [6]: 0.08 µM
Structure (SMILES): COc1cc(/C=C2/C(C)=C(CC(=O)NCc3ccccc3)c3cc(F)ccc32)cc(OC)c1OC [Compound E, (Z)-5-Fluoro-2-methyl-1-(3,4,5-trimethoxybenzylidene)-3-indenylacetamide, N-benzyl]
competitive (with cGMP) inhibition/binding, Peak B [7]: competitively (with cGMP) binds; also recorded: competitively inhibited | competitive (with cGMP) inhibition/binding, Peak A [8]: competitively (with cGMP) bind; also recorded: competitively inhibited | Apoptosis [9]: + + + + | Mammary Gland Organ Culture [10]: + + + + | COX-I inhibition [11]: neither test compound B and E significantly inhibits COX-I | Growth Inhibition (HT-29 cells): + + + +

% Inhibition at 10 μM (cGMP PDE) [6]: <25% | PDE Inhibition [6]: − | % Inhibition at 100 μM (cyclooxygenase) (Cyclooxygenase (COX); 100 μM): <25%
Structure (SMILES): CCN(CC)CCSC12CC(=O)OC1(C)/C(=C/c1ccc(S(C)(=O)=O)cc1)c1ccc(F)cc12 (racemic) [A, rac-threo-(E)-1-(N,N′-diethylaminoethanethio)-1-(butan-1′,4′-olido)-[3′,4′:1,2]-6-fluoro-2-methyl-3-(p-methylsulfonylbenzylidene)-indan]
Apoptosis [9]: + + | Mammary Gland Organ Culture [10]: + + | Fold induction at 100 μM (apoptosis) [12]: <2.0 fold | % Inhibition at 100 μM (growth) (HT-29 cells; 100 μM): 68% | Growth Inhibition (HT-29 cells): + + +

PDE Inhibition [6]: + + + | inhibition at 10 µM ([6]; read-out: % Inhibition at 10 μM (cGMP PDE), 10 μM): < 25% | IC50 [6]: 18 µM | inhibition at 20 µM ([6]; read-out: inhibition of cGMP PDE at 20 μM, 20 μM): > 50% | EC50 ([9]; Homo sapiens, HT-29, 48 hours): ~175 µM | IC50 [15]: 58 µM | inhibition at 100 µM (Cyclooxygenase (COX)): < 25% | COX Inhibition (Cyclooxygenase (COX); Table 9 qualitative profile): −
Structure (SMILES): COc1cc(/C=C2/C(C)=C(CC(=O)O)c3cc(F)ccc32)cc(OC)c1OC [Compound B, (Z)-5-Fluoro-2-methyl-1-(3,4,5-trimethoxybenzylidene)-3-acetic acid]
competition with cGMP in binding of GST-cGB-PDE5 [13]: do not bind to the cGMP binding sites of PDE5 | Apoptosis [9]: + + + | fold induction at 100 µM [14]: > 2 | Mammary Gland Organ Culture [10]: + + | COX-I inhibition [11]: neither test compound B and E significantly inhibits COX-I | Growth Inhibition (HT-29 cells): + + +
